Here are results for 4 compounds from US20110237677A1, “Inhibitors” (The University of Nottingham, priority 2008, published 2011).

For assay [1], the system named is Myometrial smooth muscle cells. The experiment in a line: Calcium mobilisation assay, oxytocin stimulated. The assay is classed as cell-based, human. The conditions noted are these: for effect on maximal calcium mobilisation: incubation with 10^−6M inhibitor, oxytocin stimulated; for Emax, maximal calcium mobilisation on oxytocin stimulation: pre-incubation for 10 minutes with 10^−6M inhibitor, FlexStation fluorescence. The procedure: Myometrial smooth muscle cells were grown in DMEM (Dulbecco's Modified Eagle Medium; Sigma-Aldrich) supplemented with 10% fetal calf serum, L-glutamine and 0.2% pen/strep at 37° C. 5% CO2, following dissociation in 2 mg/ml collagenase (Sigma-Aldrich). Once confluent cells were plated on black-walled flat-bottomed sterile 96-well plates (Costar) at a concentration of 10^5 cells/ml and in the same media makeup and again grown to confluence. Once confluent, cells were incubated in 100 μl media/well containing 2.5 mM probenecid (Sigma-Aldrich), 2.3 μM Fluo-4 (invitrogen) and 0.023% pluronic acid (Invitrogen) for one hour in the dark at 37° C. 5% CO2. Cells were then washed twice with phosphate buffered saline and finally incubated in 100 μl/well PSS (Chanrachakul, Broughton-Pipkin et al., Am J Obstet Gynecol 192(2): 458-63, 2005) containing 2.5 mM probenecid with or without 10^−6 mol/L cystamine, MDC or cysteamine for 10 minutes. Fluorescent readout was then recorded on FlexStation ([…]) over a 200 second period with oxytocin addition at 15 seconds (10^−11 to 10^−5 mol/L) and ionomycin, to measure maximal potential response, at 150 seconds (10^−6 mol/L; Sigma-Aldrich).

The subject of assay [2] is myometrial strips. The assay is described as follows: Isometric tension recording, phenylephrine-induced contractions of myometrial strips. The conditions noted are these: phenylephrine 10^−8M; compared to control strips. It counts as cell-based, human. The text has this:
(§1) Longitudinal myometrial strips were mounted in an organ bath and contractile activity recorded as a measure of tensile force as previously described (Chanrachakul, Broughton-Pipkin et al., Am J Obstet Gynecol 192(2): 458-63, 2005). Myometrial contractions were initially stimulated by addition of oxytocin, bradykinin or phenylephrine (Sigma-Aldrich; 10^−10 mol/L, 10^−8 mol/L, 10^−8 mol/L respectively). Once rhythmic contractions had been achieved cumulative additions of cystamine (Sigma-Aldrich; 10^−8 to 10^−2 mol/L), mono-dansylcadaverine (MDC) (Sigma-Aldrich; 10^−8 to 10^−4 mol/L), cysteamine (Sigma-Aldrich; 10^−9 to 10^−2 mol/L), putrescine (Sigma-Aldrich; 10^−8 to 10^−4 mol/L) were added at 25 minute intervals. Contractile activity was determine by activity integral measured from 20 minutes time periods for each drug addition and analysed along with time-matched control myometrial strips under the same conditions but with vehicle additions (physiological salt solution).

For assay [3], the system named is myometrial strips. The assay is described as follows: Isometric tension recording, bradykinin-induced contractions of myometrial strips. It counts as cell-based, human. The conditions noted are these: bradykinin 10^−8M; compared to control strips.
Text: as §1

The test system of assay [4] is myometrial strips. The experiment in a line: Isometric tension recording, spontaneous contractions of myometrial strips. The assay is classed as cell-based, human. The conditions noted are these: 2 g tension, organ bath; dose-dependent. The procedure: FIG. 9 Diagrammatic representations showing that spontaneous contractions in myometrial strips are inhibited by cystamine (n=4), cysteamine (n=3) and MDC (n=2) in a dose-dependent manner. Control strips are shown with unbroken line (n=2). Tissue is used 24 hours following elective caesarean section and contractions are allowed to spontaneously initiate under 2 g tension and in a temperature controlled and oxygenated organ bath.
as §1

For the next assay, the system named is human myometrial tissue. The assay is described as follows: Isometric tension recording, oxytocin-induced contractions of myometrial strips. The assay is classed as cell-based. The conditions noted are these: for EC50: Homo sapiens, inhibition of contractions stimulated with 10^−10M oxytocin, pooled experiments, cumulative additions, tissue 24 hours after elective caesarean; for effect on oxytocin-induced contractions: dose-dependent, 10^−10M oxytocin; for oxytocin-induced contractions after removal of the inhibitor by washing: washing with physiological salt solution, re-stimulation with oxytocin.
Text: as §1

For `CN(C)c1cccc2c(S(=O)(=O)NCCCCCN)cccc12` [MDC, Monodansylcadaverine], in assay [1], the “effect on maximal calcium mobilisation” value is recorded as “significantly reduced” and the “Emax, maximal calcium mobilisation on oxytocin stimulation” value (“Emax, maximal calcium mobilisation” for short) is listed as 81.45. Also, in the assay on myometrial strips [2], the “effect on phenylephrine induced contractions” value was “inhibited in a dose dependent manner”. In addition, the “effect on bradykinin induced contractions” value in the assay with myometrial strips [3] is recorded as “inhibited in a dose dependent manner”. For the same compound, the “effect on spontaneous contractions” value in the assay on myometrial strips [4] was “inhibited”. In the assay with human myometrial tissue, the EC50 is 22 µM, the “effect on oxytocin-induced contractions” value is listed as “inhibited” and the “oxytocin-induced contractions after removal of the inhibitor by washing” value is recorded as “return to control levels”. Also, in the assay with human myometrial tissue (MDC 10^−4M, contractions stimulated with 10^−10M oxytocin), the “contractility, % of untreated control myometrium” value is given as 17.8%±6.2.

Consider `NCCSSCCN` [cystamine], for which, in assay [1], the “effect on maximal calcium mobilisation” value is “significantly reduced” and the “Emax, maximal calcium mobilisation” value came to 87.67. Moreover, in the assay with myometrial strips [2], the “effect on phenylephrine induced contractions” value is “inhibited in a dose dependent manner”. In addition, in the assay on myometrial strips [3], the “effect on bradykinin induced contractions” value is recorded as “inhibited in a dose dependent manner”. Also, the “effect on spontaneous contractions” value with myometrial strips [4] was “inhibited”. Moreover, in the assay on human myometrial tissue, the response was half-maximal at 1310 µM (EC50), the “effect on oxytocin-induced contractions” value is listed as “inhibited” and the “oxytocin-induced contractions after removal of the inhibitor by washing” value is listed as “return to control levels”.

Turning to `NCCS` [cysteamine], in assay [1], the “effect on maximal calcium mobilisation” value is on record as “significantly reduced” and the “Emax, maximal calcium mobilisation” value was 98.95. Also, the “effect on spontaneous contractions” value with myometrial strips [4] is on record as “inhibited”. Further, in the assay with human myometrial tissue, the midpoint of the response, the EC50, lay at 1.63 µM; the “effect on oxytocin-induced contractions” value is given as “inhibited”; the “oxytocin-induced contractions after removal of the inhibitor by washing” value is “began to return to control levels”.

Take `NCCCCN` [putrescine]: in the assay with human myometrial tissue, a half-maximal response (EC50) required 56.6 µM and the “effect on oxytocin-induced contractions” value was “inhibited”.

For orientation: EC50 means the concentration needed to bring the measured effect to its halfway point. Higher therefore signals a need for much substance.
